{
  "source": "PubChem BioAssay AID1918947",
  "about": "(Molecular Pharmacology Branch, DTP, NCI, 2023)",
  "tested_on": "A498 complex spheroid viability",
  "test": "Anticancer human tumor A498 cell line growth inhibition;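 also: spheroids exposed to agents for seven days before readout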;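 as to viability, T/C: 100% = DMSO vehicle-treated spheroids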",
  "details": "for IC50: curve of first compound; for viability, T/C: stronger effect = lower value",
  "how_it_was_run": "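Drug combinations with the LSD1 inhibitor iadademstat tested on tumor cells co-cultured as spheroids with endothelial cells and mesenchymal stem cells. Concentrations descended in half-log increments from clinical Cmax or 10 microM.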",
  "data": [
    {"smiles": "NS(=O)(=O)OCC1CC(n2ccc3c(NC4CCc5ccccc54)ncnc32)CC1O", "note": "(stereo not given) + NC1CCC(NC2CC2c2ccccc2)CC1", "values": [
      {"measurement": "IC50", "setting": "second compound 0.1 µM", "result": 20.8, "unit": "nM"},
      {"measurement": "IC50", "setting": "second compound 0.316 µM", "result": 20.2, "unit": "nM"},
      {"measurement": "IC50", "setting": "second compound 1 µM", "result": "< 9.49", "unit": "nM"},
      {"measurement": "IC50", "setting": "second compound 3.16 µM", "result": "< 9.49", "unit": "nM"},
      {"measurement": "IC50", "setting": "second compound 10 µM", "result": "< 9.49", "unit": "nM"},
      {"measurement": "viability, T/C", "setting": "second compound 0.1 µM, first compound 0.00949 µM", "result": 61.1, "unit": "%"},
      {"measurement": "viability, T/C", "setting": "second compound 0.1 µM, first compound 0.03 µM", "result": 43.3, "unit": "%"},
      {"measurement": "viability, T/C", "setting": "second compound 0.1 µM, first compound 0.0949 µM", "result": 35, "unit": "%"},
      {"measurement": "viability, T/C", "setting": "second compound 0.1 µM, first compound 0.3 µM", "result": 24, "unit": "%"},
      {"measurement": "viability, T/C", "setting": "second compound 0.1 µM, first compound 0.949 µM", "result": 19.4, "unit": "%"},
      {"measurement": "viability, T/C", "setting": "second compound 0.1 µM, first compound 3 µM", "result": 15.3, "unit": "%"},
      {"measurement": "viability, T/C", "setting": "second compound 0.316 µM, first compound 0.00949 µM", "result": 64.5, "unit": "%"},
      {"measurement": "viability, T/C", "setting": "second compound 0.316 µM, first compound 0.03 µM", "result": 41.2, "unit": "%"},
      {"measurement": "viability, T/C", "setting": "second compound 0.316 µM, first compound 0.0949 µM", "result": 30.8, "unit": "%"},
      {"measurement": "viability, T/C", "setting": "second compound 0.316 µM, first compound 0.3 µM", "result": 22.7, "unit": "%"},
      {"measurement": "viability, T/C", "setting": "second compound 0.316 µM, first compound 0.949 µM", "result": 17.8, "unit": "%"},
      {"measurement": "viability, T/C", "setting": "second compound 0.316 µM, first compound 3 µM", "result": 15.6, "unit": "%"},
      {"measurement": "viability, T/C", "setting": "second compound 1 µM, first compound 0.00949 µM", "result": 47.8, "unit": "%"},
      {"measurement": "viability, T/C", "setting": "second compound 1 µM, first compound 0.03 µM", "result": 29.6, "unit": "%"},
      {"measurement": "viability, T/C", "setting": "second compound 1 µM, first compound 0.0949 µM", "result": 21.4, "unit": "%"},
      {"measurement": "viability, T/C", "setting": "second compound 1 µM, first compound 0.3 µM", "result": 19.5, "unit": "%"},
      {"measurement": "viability, T/C", "setting": "second compound 1 µM, first compound 0.949 µM", "result": 14.3, "unit": "%"},
      {"measurement": "viability, T/C", "setting": "second compound 1 µM, first compound 3 µM", "result": 11.8, "unit": "%"},
      {"measurement": "viability, T/C", "setting": "second compound 3.16 µM, first compound 0.00949 µM", "result": 31.8, "unit": "%"},
      {"measurement": "viability, T/C", "setting": "second compound 3.16 µM, first compound 0.03 µM", "result": 15.6, "unit": "%"},
      {"measurement": "viability, T/C", "setting": "second compound 3.16 µM, first compound 0.0949 µM", "result": 16.6, "unit": "%"},
      {"measurement": "viability, T/C", "setting": "second compound 3.16 µM, first compound 0.3 µM", "result": 11.5, "unit": "%"},
      {"measurement": "viability, T/C", "setting": "second compound 3.16 µM, first compound 0.949 µM", "result": 8.41, "unit": "%"},
      {"measurement": "viability, T/C", "setting": "second compound 3.16 µM, first compound 3 µM", "result": 6.43, "unit": "%"},
      {"measurement": "viability, T/C", "setting": "second compound 10 µM, first compound 0.00949 µM", "result": 11.8, "unit": "%"},
      {"measurement": "viability, T/C", "setting": "second compound 10 µM, first compound 0.03 µM", "result": 8.27, "unit": "%"},
      {"measurement": "viability, T/C", "setting": "second compound 10 µM, first compound 0.0949 µM", "result": 6.84, "unit": "%"},
      {"measurement": "viability, T/C", "setting": "second compound 10 µM, first compound 0.3 µM", "result": 5.05, "unit": "%"},
      {"measurement": "viability, T/C", "setting": "second compound 10 µM, first compound 0.949 µM", "result": 4.15, "unit": "%"},
      {"measurement": "viability, T/C", "setting": "second compound 10 µM, first compound 3 µM", "result": 6.13, "unit": "%"}
    ]},
    {"smiles": "COc1ccc([C@@H](O)c2cc(-c3ncnc4cc(N5CCOCC5)ccc34)c(F)cc2Cl)nn1", "note": "+ NC1CC1c1ccc(-c2cccc(O)c2)cc1", "values": [
      {"measurement": "IC50", "setting": "second compound 0.1 µM", "result": 96.3, "unit": "nM"},
      {"measurement": "IC50", "setting": "second compound 0.316 µM", "result": 112, "unit": "nM"},
      {"measurement": "IC50", "setting": "second compound 1 µM", "result": 96.2, "unit": "nM"},
      {"measurement": "IC50", "setting": "second compound 3.16 µM", "result": 89, "unit": "nM"},
      {"measurement": "IC50", "setting": "second compound 10 µM", "result": 69.9, "unit": "nM"},
      {"measurement": "viability, T/C", "setting": "second compound 0.1 µM, first compound 0.0316 µM", "result": 75, "unit": "%"},
      {"measurement": "viability, T/C", "setting": "second compound 0.1 µM, first compound 0.1 µM", "result": 49.5, "unit": "%"},
      {"measurement": "viability, T/C", "setting": "second compound 0.1 µM, first compound 0.316 µM", "result": 28.1, "unit": "%"},
      {"measurement": "viability, T/C", "setting": "second compound 0.1 µM, first compound 1 µM", "result": 16.7, "unit": "%"},
      {"measurement": "viability, T/C", "setting": "second compound 0.1 µM, first compound 3.16 µM", "result": 9.62, "unit": "%"},
      {"measurement": "viability, T/C", "setting": "second compound 0.1 µM, first compound 10 µM", "result": 5.97, "unit": "%"},
      {"measurement": "viability, T/C", "setting": "second compound 0.316 µM, first compound 0.0316 µM", "result": 80.4, "unit": "%"},
      {"measurement": "viability, T/C", "setting": "second compound 0.316 µM, first compound 0.1 µM", "result": 52.9, "unit": "%"},
      {"measurement": "viability, T/C", "setting": "second compound 0.316 µM, first compound 0.316 µM", "result": 28.8, "unit": "%"},
      {"measurement": "viability, T/C", "setting": "second compound 0.316 µM, first compound 1 µM", "result": 19.5, "unit": "%"},
      {"measurement": "viability, T/C", "setting": "second compound 0.316 µM, first compound 3.16 µM", "result": 9.72, "unit": "%"},
      {"measurement": "viability, T/C", "setting": "second compound 0.316 µM, first compound 10 µM", "result": 6.4, "unit": "%"},
      {"measurement": "viability, T/C", "setting": "second compound 1 µM, first compound 0.0316 µM", "result": 70.6, "unit": "%"},
      {"measurement": "viability, T/C", "setting": "second compound 1 µM, first compound 0.1 µM", "result": 50.1, "unit": "%"},
      {"measurement": "viability, T/C", "setting": "second compound 1 µM, first compound 0.316 µM", "result": 27.4, "unit": "%"},
      {"measurement": "viability, T/C", "setting": "second compound 1 µM, first compound 1 µM", "result": 17.2, "unit": "%"},
      {"measurement": "viability, T/C", "setting": "second compound 1 µM, first compound 3.16 µM", "result": 9.2, "unit": "%"},
      {"measurement": "viability, T/C", "setting": "second compound 1 µM, first compound 10 µM", "result": 6.15, "unit": "%"},
      {"measurement": "viability, T/C", "setting": "second compound 3.16 µM, first compound 0.0316 µM", "result": 73.1, "unit": "%"},
      {"measurement": "viability, T/C", "setting": "second compound 3.16 µM, first compound 0.1 µM", "result": 46.8, "unit": "%"},
      {"measurement": "viability, T/C", "setting": "second compound 3.16 µM, first compound 0.316 µM", "result": 29.7, "unit": "%"},
      {"measurement": "viability, T/C", "setting": "second compound 3.16 µM, first compound 1 µM", "result": 16.7, "unit": "%"},
      {"measurement": "viability, T/C", "setting": "second compound 3.16 µM, first compound 3.16 µM", "result": 8.9, "unit": "%"},
      {"measurement": "viability, T/C", "setting": "second compound 3.16 µM, first compound 10 µM", "result": 5.52, "unit": "%"},
      {"measurement": "viability, T/C", "setting": "second compound 10 µM, first compound 0.0316 µM", "result": 67.1, "unit": "%"},
      {"measurement": "viability, T/C", "setting": "second compound 10 µM, first compound 0.1 µM", "result": 42.5, "unit": "%"},
      {"measurement": "viability, T/C", "setting": "second compound 10 µM, first compound 0.316 µM", "result": 24.5, "unit": "%"},
      {"measurement": "viability, T/C", "setting": "second compound 10 µM, first compound 1 µM", "result": 16.6, "unit": "%"},
      {"measurement": "viability, T/C", "setting": "second compound 10 µM, first compound 3.16 µM", "result": 8.67, "unit": "%"},
      {"measurement": "viability, T/C", "setting": "second compound 10 µM, first compound 10 µM", "result": 5.51, "unit": "%"}
    ]}
  ]
}
